Experiment: xn = mol fraction of the nth substance listed
Conditions: 101 kPa, Liquid

OCCCCO [1,4-butanediol] + NC=O
Conditions | speed of sound [m/s] | viscosity [mPa·s]
293.15 K, x2 = 0.1052 | 1606 | 64.53
293.15 K, x2 = 0.1988 | 1594.7 | 44
293.15 K, x2 = 0.3041 | 1585.7 | 30.1
293.15 K, x2 = 0.4002 | 1577.7 | 21.2
293.15 K, x2 = 0.5009 | 1572.5 | 15.13
293.15 K, x2 = 0.6022 | 1569.9 | 11.33
293.15 K, x2 = 0.6992 | 1574.7 | 7.998
293.15 K, x2 = 0.8051 | 1583.7 | 5.512
293.15 K, x2 = 0.905 | 1597.1 | 4.026
298.15 K, x2 = 0.1052 | 1592.6 | 48.08
298.15 K, x2 = 0.1988 | 1579.2 | 31.14
298.15 K, x2 = 0.3041 | 1568.5 | 19.82
298.15 K, x2 = 0.4002 | 1560.2 | 12.5
298.15 K, x2 = 0.5009 | 1553.9 | 8.021
298.15 K, x2 = 0.6022 | 1551.3 | 6.233
298.15 K, x2 = 0.6992 | 1556 | 4.971
298.15 K, x2 = 0.8051 | 1565.5 | 3.96
298.15 K, x2 = 0.905 | 1580.5 | 3.372
303.15 K, x2 = 0.1052 | 1580.1 | 38.03
303.15 K, x2 = 0.1988 | 1565.3 | 24.03
303.15 K, x2 = 0.3041 | 1553.4 | 13.42
303.15 K, x2 = 0.4002 | 1544.2 | 7.715
303.15 K, x2 = 0.5009 | 1537.7 | 4.771
303.15 K, x2 = 0.6022 | 1534.5 | 3.722
303.15 K, x2 = 0.6992 | 1539.5 | 3.062
303.15 K, x2 = 0.8051 | 1550 | 2.658
303.15 K, x2 = 0.905 | 1566.3 | 2.754
308.15 K, x2 = 0.1052 | 1568.8 | 30.12
308.15 K, x2 = 0.1988 | 1552 | 18.56
308.15 K, x2 = 0.3041 | 1539.2 | 9.498
308.15 K, x2 = 0.4002 | 1529.4 | 4.663
308.15 K, x2 = 0.5009 | 1522.1 | 2.696
308.15 K, x2 = 0.6022 | 1518.6 | 2.188
308.15 K, x2 = 0.6992 | 1524 | 1.87
308.15 K, x2 = 0.8051 | 1534.8 | 1.924
308.15 K, x2 = 0.905 | 1552.1 | 2.366
313.15 K, x2 = 0.1052 | 1558.4 | 23.74
313.15 K, x2 = 0.1988 | 1539.9 | 13.81
313.15 K, x2 = 0.3041 | 1525.4 | 6.541
313.15 K, x2 = 0.4002 | 1514.6 | 2.871
313.15 K, x2 = 0.5009 | 1506.5 | 1.619
313.15 K, x2 = 0.6022 | 1503 | 1.272
313.15 K, x2 = 0.6992 | 1508 | 1.079
313.15 K, x2 = 0.8051 | 1519.6 | 1.525
313.15 K, x2 = 0.905 | 1537.9 | 1.998
318.15 K, x2 = 0.1052 | 1546.2 | 18.95
318.15 K, x2 = 0.1988 | 1525.7 | 10.75
318.15 K, x2 = 0.3041 | 1510.2 | 5.094
318.15 K, x2 = 0.4002 | 1498.6 | 2.024
318.15 K, x2 = 0.5009 | 1490.6 | 1.167
318.15 K, x2 = 0.6022 | 1486.8 | 1.003
318.15 K, x2 = 0.6992 | 1491.7 | 0.9823
318.15 K, x2 = 0.8051 | 1503.8 | 1.242
318.15 K, x2 = 0.905 | 1524 | 1.706

NC=O [formamide] + CCCCO
Conditions | speed of sound [m/s] | viscosity [mPa·s]
293.15 K, x1 = 0.1093 | 1302.3 | 3.225
293.15 K, x1 = 0.2057 | 1337.7 | 3.446
293.15 K, x1 = 0.3138 | 1377 | 3.598
293.15 K, x1 = 0.4104 | 1412 | 3.696
293.15 K, x1 = 0.5115 | 1448.4 | 3.754
293.15 K, x1 = 0.6124 | 1484.4 | 3.777
293.15 K, x1 = 0.7081 | 1518 | 3.77
293.15 K, x1 = 0.8123 | 1554 | 3.744
293.15 K, x1 = 0.9086 | 1586.4 | 3.708
298.15 K, x1 = 0.1093 | 1281.2 | 2.81
298.15 K, x1 = 0.2057 | 1315.3 | 3.018
298.15 K, x1 = 0.3138 | 1353.7 | 3.181
298.15 K, x1 = 0.4104 | 1388.3 | 3.285
298.15 K, x1 = 0.5115 | 1424.6 | 3.352
298.15 K, x1 = 0.6124 | 1461 | 3.386
298.15 K, x1 = 0.7081 | 1495.5 | 3.389
298.15 K, x1 = 0.8123 | 1533.1 | 3.379
298.15 K, x1 = 0.9086 | 1567.9 | 3.355
303.15 K, x1 = 0.1093 | 1261.5 | 2.506
303.15 K, x1 = 0.2057 | 1294.8 | 2.693
303.15 K, x1 = 0.3138 | 1332.6 | 2.846
303.15 K, x1 = 0.4104 | 1367.1 | 2.947
303.15 K, x1 = 0.5115 | 1403.4 | 3.003
303.15 K, x1 = 0.6124 | 1440.3 | 3.032
303.15 K, x1 = 0.7081 | 1475.4 | 3.036
303.15 K, x1 = 0.8123 | 1515.3 | 3.019
303.15 K, x1 = 0.9086 | 1552.5 | 2.996
308.15 K, x1 = 0.1093 | 1243.5 | 2.202
308.15 K, x1 = 0.2057 | 1275.6 | 2.371
308.15 K, x1 = 0.3138 | 1312.7 | 2.516
308.15 K, x1 = 0.4104 | 1347 | 2.616
308.15 K, x1 = 0.5115 | 1383.6 | 2.676
308.15 K, x1 = 0.6124 | 1420.5 | 2.702
308.15 K, x1 = 0.7081 | 1456.5 | 2.705
308.15 K, x1 = 0.8123 | 1497.9 | 2.688
308.15 K, x1 = 0.9086 | 1537.2 | 2.671
313.15 K, x1 = 0.1093 | 1223.7 | 1.92
313.15 K, x1 = 0.2057 | 1255.5 | 2.081
313.15 K, x1 = 0.3138 | 1292.1 | 2.224
313.15 K, x1 = 0.4104 | 1326 | 2.324
313.15 K, x1 = 0.5115 | 1362.6 | 2.388
313.15 K, x1 = 0.6124 | 1399.8 | 2.418
313.15 K, x1 = 0.7081 | 1437 | 2.426
313.15 K, x1 = 0.8123 | 1479.9 | 2.423
313.15 K, x1 = 0.9086 | 1521.9 | 2.413
318.15 K, x1 = 0.1093 | 1203.3 | 1.725
318.15 K, x1 = 0.2057 | 1234.5 | 1.874
318.15 K, x1 = 0.3138 | 1270.8 | 2.008
318.15 K, x1 = 0.4104 | 1305 | 2.106
318.15 K, x1 = 0.5115 | 1341.3 | 2.167
318.15 K, x1 = 0.6124 | 1379.1 | 2.204
318.15 K, x1 = 0.7081 | 1417.5 | 2.217
318.15 K, x1 = 0.8123 | 1461.9 | 2.216
318.15 K, x1 = 0.9086 | 1506.6 | 2.216

Reference: the NIST ThermoML archive (doi:10.1016/j.fluid.2007.12.007)
